Source: ChEMBL document CHEMBL1128349 (J Med Chem, 1995)

Tests used:
[1] = target: T1, Alpha-2A adrenergic receptor (Homo sapiens, UniProt P08913); assay: Ability to displace [3H]rauwolscine from cloned human Alpha-2A adrenergic receptor
T1 sequence (P08913 whole entry): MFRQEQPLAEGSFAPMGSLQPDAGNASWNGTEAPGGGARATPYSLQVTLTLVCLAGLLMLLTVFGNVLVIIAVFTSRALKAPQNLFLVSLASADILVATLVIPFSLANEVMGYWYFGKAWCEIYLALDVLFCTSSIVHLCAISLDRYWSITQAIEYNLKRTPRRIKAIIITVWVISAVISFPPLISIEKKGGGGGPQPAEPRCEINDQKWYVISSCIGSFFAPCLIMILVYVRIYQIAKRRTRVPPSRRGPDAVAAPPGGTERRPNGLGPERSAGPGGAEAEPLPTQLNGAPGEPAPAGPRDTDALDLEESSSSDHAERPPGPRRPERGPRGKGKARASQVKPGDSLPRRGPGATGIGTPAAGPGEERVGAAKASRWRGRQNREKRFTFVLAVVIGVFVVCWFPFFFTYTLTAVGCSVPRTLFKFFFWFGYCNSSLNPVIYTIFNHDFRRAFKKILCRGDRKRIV

[2] = target: Voltage-gated L-type calcium channel (Rattus norvegicus, UniProt P22002+Q02485+P27732); assay: Displacement of [3H]nitrendipine from rat brain L-type [Ca2+] channel; type: tissue-based
[3] = target: T2, Alpha-1D adrenergic receptor (Homo sapiens, UniProt P25100); assay: Ability to displace [3H]prazosin from cloned human Alpha-1D adrenergic receptor
T2 sequence (P25100 whole entry): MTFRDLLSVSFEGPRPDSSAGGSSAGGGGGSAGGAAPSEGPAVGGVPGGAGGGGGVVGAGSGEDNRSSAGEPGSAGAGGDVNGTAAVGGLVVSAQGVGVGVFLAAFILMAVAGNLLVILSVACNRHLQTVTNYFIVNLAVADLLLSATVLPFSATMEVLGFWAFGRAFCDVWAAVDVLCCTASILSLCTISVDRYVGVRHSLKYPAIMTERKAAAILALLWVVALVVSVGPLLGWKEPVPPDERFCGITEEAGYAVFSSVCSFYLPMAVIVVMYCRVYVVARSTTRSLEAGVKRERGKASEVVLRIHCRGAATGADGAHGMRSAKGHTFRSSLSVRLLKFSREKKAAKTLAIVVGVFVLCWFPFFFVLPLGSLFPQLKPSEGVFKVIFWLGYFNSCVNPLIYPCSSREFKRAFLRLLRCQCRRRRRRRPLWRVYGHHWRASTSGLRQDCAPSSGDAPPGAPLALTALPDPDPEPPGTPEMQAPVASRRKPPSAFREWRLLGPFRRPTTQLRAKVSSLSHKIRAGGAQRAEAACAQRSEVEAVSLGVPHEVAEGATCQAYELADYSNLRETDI

[4] = target: T3, Alpha-2B adrenergic receptor (Homo sapiens, UniProt P18089)
T3 sequence (P18089 whole entry): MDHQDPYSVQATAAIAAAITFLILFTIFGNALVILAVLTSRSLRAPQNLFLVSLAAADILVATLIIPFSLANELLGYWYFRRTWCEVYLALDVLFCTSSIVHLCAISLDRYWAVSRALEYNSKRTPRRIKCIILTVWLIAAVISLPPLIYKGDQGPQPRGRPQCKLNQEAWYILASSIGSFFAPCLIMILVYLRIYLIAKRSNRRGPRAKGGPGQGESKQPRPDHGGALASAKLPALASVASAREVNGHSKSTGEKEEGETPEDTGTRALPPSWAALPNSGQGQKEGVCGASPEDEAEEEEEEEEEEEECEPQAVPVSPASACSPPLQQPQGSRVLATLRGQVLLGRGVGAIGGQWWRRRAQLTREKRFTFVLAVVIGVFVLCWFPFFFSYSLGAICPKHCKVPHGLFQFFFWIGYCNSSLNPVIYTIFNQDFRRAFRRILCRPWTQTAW

[5] = target: T4, Alpha-1B adrenergic receptor (Homo sapiens, UniProt P35368); assay: Ability to displace [3H]prazosin from cloned human Alpha-1B adrenergic receptor
T4 sequence (P35368 whole entry): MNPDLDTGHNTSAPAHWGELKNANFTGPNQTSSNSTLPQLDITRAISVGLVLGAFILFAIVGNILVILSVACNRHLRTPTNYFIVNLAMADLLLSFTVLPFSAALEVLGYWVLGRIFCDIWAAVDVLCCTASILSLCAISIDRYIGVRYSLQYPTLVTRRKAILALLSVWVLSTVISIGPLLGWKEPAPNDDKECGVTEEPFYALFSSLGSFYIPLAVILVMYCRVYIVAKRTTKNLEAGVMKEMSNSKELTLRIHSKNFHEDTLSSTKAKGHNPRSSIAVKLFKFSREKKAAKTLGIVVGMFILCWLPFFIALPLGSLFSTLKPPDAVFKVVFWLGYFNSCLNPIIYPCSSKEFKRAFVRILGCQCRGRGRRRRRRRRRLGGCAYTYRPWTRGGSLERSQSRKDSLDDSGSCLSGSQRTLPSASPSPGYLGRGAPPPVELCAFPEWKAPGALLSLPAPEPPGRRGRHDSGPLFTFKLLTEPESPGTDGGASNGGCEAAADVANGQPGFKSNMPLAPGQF

[6] = target: T5, Alpha-2C adrenergic receptor (Homo sapiens, UniProt P18825); assay: Ability to displace [3H]rauwolscine from cloned human Alpha-2C adrenergic receptor
T5 sequence (P18825 whole entry): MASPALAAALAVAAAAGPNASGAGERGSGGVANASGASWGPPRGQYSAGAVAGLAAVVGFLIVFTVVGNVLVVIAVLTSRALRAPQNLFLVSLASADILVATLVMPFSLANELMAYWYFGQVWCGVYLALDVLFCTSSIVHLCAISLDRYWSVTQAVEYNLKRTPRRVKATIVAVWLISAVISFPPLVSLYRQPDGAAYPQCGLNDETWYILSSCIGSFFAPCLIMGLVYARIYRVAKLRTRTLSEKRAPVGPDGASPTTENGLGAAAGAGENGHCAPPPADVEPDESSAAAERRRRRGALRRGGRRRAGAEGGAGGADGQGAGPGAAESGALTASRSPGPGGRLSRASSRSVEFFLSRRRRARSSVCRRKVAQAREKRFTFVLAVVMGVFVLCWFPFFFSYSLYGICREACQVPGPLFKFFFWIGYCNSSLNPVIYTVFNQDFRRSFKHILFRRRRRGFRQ

[7] = target: T6, Alpha-1A adrenergic receptor (Homo sapiens, UniProt P35348)
T6 sequence (P35348 whole entry): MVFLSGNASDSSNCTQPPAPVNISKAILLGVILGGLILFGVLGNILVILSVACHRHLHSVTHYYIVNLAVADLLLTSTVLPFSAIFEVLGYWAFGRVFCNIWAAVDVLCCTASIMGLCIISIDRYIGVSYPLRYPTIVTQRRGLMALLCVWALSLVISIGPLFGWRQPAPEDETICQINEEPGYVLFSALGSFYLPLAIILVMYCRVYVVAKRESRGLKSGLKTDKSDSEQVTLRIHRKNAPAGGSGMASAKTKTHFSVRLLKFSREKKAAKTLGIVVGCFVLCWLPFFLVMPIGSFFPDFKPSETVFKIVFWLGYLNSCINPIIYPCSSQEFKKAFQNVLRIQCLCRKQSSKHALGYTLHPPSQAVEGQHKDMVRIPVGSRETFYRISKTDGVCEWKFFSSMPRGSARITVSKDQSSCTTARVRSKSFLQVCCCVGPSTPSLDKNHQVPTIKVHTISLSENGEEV

Ki [1] [nM]	Ki [2] [nM]	Ki [4] [nM]	Ki [5] [nM]	Ki [6] [nM]	Ki [7] [nM]	SMILES	Ki [3] [nM]
[…]	670					CO/C(O)=C1\C(C)=NC(C)=C(C(=O)NCCCN2CCC(c3ccccc3)(c3ccccc3)CC2)[C@H]1c1ccc([N+](=O)[O-])cc1	
800	250	570	50	300	0.32	CO/C(O)=C1\C(C)=NC(C)=C(C(=O)OCCCN2CCC(c3ccccc3)(c3ccccc3)CC2)C1c1ccc([N+](=O)[O-])cc1 (configuration not stated)	210
	> 10000					COc1cc2nc(N3CCN(C(=O)c4ccco4)CC3)nc(N)c2cc1OC [PRAZOSIN]	

SMILES	Ki [1] [nM]	Ki [2] [nM]	Ki [4] [nM]	Ki [5] [nM]	Ki [6] [nM]	Ki [7] [nM]	Ki [3] [nM]
COc1cc2nc(N3CCN(C(=O)C4CCCO4)CC3)nc(N)c2cc1OC (configuration not stated) [TERAZOSIN]	550						3.7
